Data as given in US10344032B2, “Agents for treating neurogenic inflammation and neuropathic hyperalgesia related disorders” (PÉCSI TUDOMÁNYEGYETEM, priority 2014, dated 2019).

What was measured:
sst4 receptor = target: T1, sst4 receptor (Homo sapiens, UniProt P31391); test: Somatostatin sst4 receptor-coupled G-protein activation assay ([35S]GTPγS binding); format: biochemical; settings: 100 nM concentration; membrane fractions of CHO cells stably expressing the sst4 receptor; percentage over specific binding in absence of agonists
T1 construct: expressed in transfected cells
Description: [^35S]GTPγS binding assay is a functional test determining agonist-induced and receptor-mediated G-protein activation which is based on the increase in guanine nucleotide exchange at G-proteins upon agonist stimulation. The interaction of a G protein-coupled receptor (GPCR) with the G protein is the first step in the transduction of the receptor binding signal to the activation of the second-messenger systems. We measured the level of [^35S]-GTPγS bound to the α subunit of G proteins and determined the efficacy of the compounds. Compounds which elicited 200% [^35S]GTPγS binding in nanomolar concentration were considered effective agonist. The examined compounds were added into the medium in 1 nM, 10 nM, 100 nM 1 μM and 10 μM concentrations.
Membrane fractions were prepared from CHO cells stably expressing the sst4 receptor in Tris-EGTA buffer (50 mM Tris-HCl, 1 mM EGTA, 3 mM MgCl2, 100 mM NaCl, pH 7.4). These membrane fractions (˜10 μg of protein/sample) were incubated at 30° C. for 60 min in the same Tris-EGTA buffer containing [^35S]GTPγS (0.05 nM) and increasing concentrations (10^−9 to 10^−5 M) of test compounds in the presence of 30 μM GDP in a final volume of 500 μl. Non-specific binding was determined in the presence of 10 μM unlabelled GTPγS. Total binding was measured in the absence of test compounds. To calculate the specific binding, non-specific binding was subtracted from total binding. The reaction was terminated by filtrating the samples through Whatman GF/B glass fiber filters. Using 48-well Slot Blot Manifold from Cleaver Scientific filters were washed three times with ice-cold 50 mM Tris-HCl buffer (pH 7.4). After drying for 60 min at 37° C., radioactivity was measured in scintillation liquid in a Packard Tri-Carb 2800 TR scintillation counter. Test compound-induced G-protein stimulation was given as percentage over the specific [^35S]GTPγS binding observed in the absence of agonists.

[1] = test system: sensory nerve terminals of isolated rat tracheae; test: Electrical field stimulation-induced release of CGRP from sensory nerve terminals of isolated rat tracheae; settings: 500 nM; absolute release = stimulated + post-stimulated fractions minus basal release
Method: Rats were exsanguinated in deep anaesthesia (sodium thiopental, 50 mg/kg i.p.), then the whole trachea was removed and cleaned of fat and adhering connective tissues. Tracheae from two rats were placed into the same 1.8 ml organ bath to obtain sufficient amount of released peptide and perfused (1 ml/min) with pH—(7.2) controlled oxygenized Krebs solution for 60 minutes (equilibration period) at 37° C. temperature. After discontinuation of the flow, the solution was changed three times for 8 minutes to produce pre-stimulated, stimulated, post-stimulated fractions. Electrical field stimulation (40 V, 0.1 ms, 10 Hz for 120 s; 1200 pulses) was performed to elicit neurotransmitter release at the beginning of the second 8-minute period. […]
CGRP concentration was determined from 400-400 μl samples of the organ bath solutions by means of a selective and sensitive radioimmunoassay method developed in our laboratories and described in details in several previous papers (Nemeth et al. 1998, 1999, 2006; Helyes et al., 1997, 2001, 2006; Borzsei et al., 2008). The released amount of the peptides was calculated as fmol peptide per mg wet tissue (trachea). The absolute EFS-induced CGRP outflow in each experiment was calculated by taking off the basal release measured in the first (pre-stimulated) fraction from the second and third 8-min fractions and then adding these values. […]

rat = test: Plantar incision-induced mechanical allodynia (dynamic plantar aesthesiometer), postoperative pain model; format: in vivo; settings: 100 μg/kg p.o., measured 60 min later; one day after plantar incision; dynamic plantar aesthesiometry
Method: Rats were anaesthesized with sodium-pentobarbital (Euthasol, 40 mg/kg i.p.) and a 1 cm longitudinal incision was made through the skin, fascia and muscle of the plantar aspect of the hindpaw. Significant decrease of both the thermonociceptive and mechanonociceptive thresholds (heat and mechanical allodynia) of the paw develops 1 day after this procedure.
One hundred and forty five (145) female Wistar rats (150-250 g) kept in the Animal House of the University of Pecs in a temperature-controlled room provided with a 12-hour light-dark cycle, standard rat chow and water ad libitum were used in this experimental series. They were brought to the air-conditioned laboratory the day before the experiment started. Throughout the total study the same assistant handled all the animals. […] Touch sensitivity was measured with a dynamic plantar aesthesiometer (DPA) and the thermonociceptive threshold was determined with an increasing temperature water-bath (ITWB) on the same rats (see below). […] Test compounds were administered p.o. and post-dose touch sensitivity and thermonociceptive thresholds were measured 60 min later. […]
a) Touch sensitivity of the plantar surface of the paw was measured with the Ugo Basile Dynamic Plantar Aesthesiometer (DPA; 37400, Comerio, Italy), which is an electronic von Frey device. […]

T1 sequence (P31391 whole entry): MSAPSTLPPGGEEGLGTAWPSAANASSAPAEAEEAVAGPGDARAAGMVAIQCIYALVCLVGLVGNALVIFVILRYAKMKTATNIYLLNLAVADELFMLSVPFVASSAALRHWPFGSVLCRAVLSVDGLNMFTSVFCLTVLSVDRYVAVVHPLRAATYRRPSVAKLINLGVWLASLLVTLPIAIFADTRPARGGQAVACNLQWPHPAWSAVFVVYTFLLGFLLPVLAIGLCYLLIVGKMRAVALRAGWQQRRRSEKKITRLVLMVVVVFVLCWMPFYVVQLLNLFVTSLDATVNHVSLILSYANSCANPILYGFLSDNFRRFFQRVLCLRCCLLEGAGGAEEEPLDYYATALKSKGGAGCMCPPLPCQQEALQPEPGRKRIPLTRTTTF

Row | melting point [°C] | SMILES | also measured
1 | 100 to 101.9 | COc1ccc(CCNc2ncnc3c2c(C)c(C)n3Cc2ccccc2)cc1 [Example 2, (7-Benzyl-5,6-dimethyl-7H-pyrrolo[2,3-d]pyrimidin-4-yl)-[2-(4-methoxy-phenyl)-ethyl]-amine] | [35S]GTPγS binding (G-protein activation) (sst4 receptor): 245.67%; inhibition on the absolute CGRP release [1]: 72.5%
2 | 185 to 187.2 | COc1cccc(CCNc2ncnc3c2c(C)c(C)n3Cc2ccccc2)c1 [Example 40, (7-Benzyl-5,6-dimethyl-7H-pyrrolo[2,3-d]pyrimidin-4-yl)-[2-(3-methoxy-phenyl)-ethyl]-amine] | [35S]GTPγS binding (G-protein activation) (sst4 receptor): 202.67%
3 |  | COc1ccc(CCNc2ncnc3c2c(C)c(C)n3CCCN(C)C)cc1 [Example 41, [7-(3-Dimethylamino-propyl)-5,6-dimethyl-7H-pyrrolo[2,3-d]pyrimidin-4-yl]-[2-(4-methoxy-phenyl)-ethyl]-amine] | [35S]GTPγS binding (G-protein activation) (sst4 receptor): 207.67%
4 | 110 to 113 | Cc1c(C)n(Cc2ccccc2)c2ncnc(NCCc3ccc(NC(=O)c4cccc(C(F)(F)F)c4)cc3)c12 [Example 48, N-{4-[2-(7-Benzyl-5,6-dimethyl-7H-pyrrolo[2,3-d]pyrimidin-4-ylamino)-ethyl]-phenyl}-3-trifluoromethyl-benzamide] | 
5 | > 270 | Cc1c(C)n(Cc2ccccc2)c2ncnc(NCCc3ccc(NC(=O)c4ccc(Cl)cc4)cc3)c12 [Example 49, N-{4-[2-(7-Benzyl-5,6-dimethyl-7H-pyrrolo[2,3-d]pyrimidin-4-ylamino)-ethyl]-phenyl}-4-chloro-benzamide] | 
6 | 180 to 182 | Cc1c(C)n(Cc2ccccc2)c2ncnc(NCCc3ccc(NC(=O)c4ccccc4)cc3)c12 [Example 50, N-{4-[2-(7-Benzyl-5,6-dimethyl-7H-pyrrolo[2,3-d]pyrimidin-4-ylamino)-ethyl]-phenyl}-benzamide] | 
7 | 112.9 to 113.3 | CCN(CC)C(=O)Nc1ccc(CCNc2ncnc3c2c(C)c(C)n3Cc2cccc(Cl)c2)cc1 [Example 52, 3-(4-{2-[7-(3-Chloro-benzyl)-5,6-dimethyl-7H-pyrrolo[2,3-d]pyrimidin-4-ylamino]-ethyl}-phenyl)-1,1-diethyl-urea] | 
8 | 138.5 to 139 | CCN(CC)C(=O)Nc1ccc(CCNc2ncnc3c2c(C)c(C)n3Cc2ccccc2)cc1 [Example 53, 3-{4-[2-(7-Benzyl-5,6-dimethyl-7H-pyrrolo[2,3-d]pyrimidin-4-ylamino)-ethyl]-phenyl}-1,1-diethyl-urea] | 
9 | 183 to 185 | Cc1c(C)n(Cc2ccccc2)c2ncnc(NCCc3ccc(NS(=O)(=O)c4ccc(F)cc4F)cc3)c12 [Example 54, N-{4-[2-(7-Benzyl-5,6-dimethyl-7H-pyrrolo[2,3-d]pyrimidin-4-ylamino)-ethyl]-phenyl}-2,4-difluoro-benzenesulfonamide] | 
10 | 125 to 129 | Cc1c(C)n(Cc2cccc(Cl)c2)c2ncnc(NCCc3ccc(NS(C)(=O)=O)cc3)c12 [Example 55, N-(4-{2-[7-(3-Chloro-benzyl)-5,6-dimethyl-7H-pyrrolo[2,3-d]pyrimidin-4-ylamino]-ethyl}-phenyl)-methanesulfonamide] | 
11 | 161.9 to 162.9 | Cc1c(C)n(Cc2ccccc2)c2ncnc(NCCc3ccc(NC(=O)Nc4cccc(C(F)(F)F)c4)cc3)c12 [Example 57, 1-{4-[2-(7-Benzyl-5,6-dimethyl-7H-pyrrolo[2,3-d]pyrimidin-4-ylamino)-ethyl]-phenyl}-3-(3-trifluoromethyl-phenyl)-urea] | 
12 | 208.7 to 209.2 | Cc1c(C)n(Cc2ccccc2)c2ncnc(NCCc3cccc(O)c3)c12 [Example 58, 3-[2-(7-Benzyl-5,6-dimethyl-7H-pyrrolo[2,3-d]pyrimidin-4-ylamino)-ethyl]-phenol] | [35S]GTPγS binding (G-protein activation) (sst4 receptor): 194.5%; decrease of mechanical allodynia (rat): 64.7%
13 | 165 to 167 | Cc1c(C)n(Cc2ccco2)c2ncnc(NCCc3ccc(O)cc3)c12 [Example 59, 4-[2-(7-Furan-2-ylmethyl-5,6-dimethyl-7H-pyrrolo[2,3-d]pyrimidin-4-ylamino)-ethyl]-phenol] | 
14 | 199.2 to 200.6 | Oc1ccc(CCNc2ncnc3c2ccn3Cc2ccccc2)cc1 [Example 60, 4-[2-(7-Benzyl-7H-pyrrolo[2,3-d]pyrimidin-4-ylamino)-ethyl]-phenol] | 
15 | 167.7 to 170 | Cc1c(C)n(Cc2cccc(Cl)c2)c2ncnc(NCCc3ccc(O)cc3)c12 [Example 61, 4-{2-[7-(3-Chloro-benzyl)-5,6-dimethyl-7H-pyrrolo[2,3-d]pyrimidin-4-ylamino]-ethyl}-phenol] | 
16 | 95 to 96.6 | Cc1c(C)n(Cc2ccccc2)c2ncnc(NCCc3ccc(N(C)C)cc3)c12 [Example 62, (7-Benzyl-5,6-dimethyl-7H-pyrrolo[2,3-d]pyrimidin-4-yl)-[2-(4-dimethylamino-phenyl)-ethyl]-amine] | 
